Measurements as given in patent US6849709B2, “Aerothricin derivatives” (Basilea Pharmaceutica AG, priority 2000, dated 2005).
*1 amine or outer side, *2 acyl side, *3 side chain or, on linkers, in order; H or OH if unused. Where a SMILES comes first, the peptide text is derived from it. Bridges are numbered along the chain shown (N, C = ends). Side-chain parts run from the residue outwards. [ ]: non-standard residue; d: D form. The star is where a group is joined. ξ: configuration not given here. pTerphenylCO(4''-OnC5H11) = CCCCCOc1ccc(-c2ccc(-c3ccc(C(=O)*)cc3)cc2)cc1; Orn(4R-OH,5R-OH) = O=C([C@H](C[C@@H](O)[C@@H](O)N[*:3])N[*:1])[*:2]; hTyr(3S-OH,4S-OH) = N[C@H](C(=O)O)[C@H](O)[C@@H](O)c1ccc(O)cc1; Orn(Nα,Nα-(2-aminoethyl)2) = NCCC[C@@H](C(=O)*)N(CCN)CCN; X2 = NCCC[C@H](N)C(=O)N(CCCN)CCC[C@H](N[*:1])C(=O)[*:2]; NαBis(2-aminoethyl)dOrn = NCCC[C@H](C(=O)*)N(CCN)CCN; Pro(3S-OH,4S-Me) = C[C@H]1CN[C@H](C(=O)O)[C@H]1O; X7 = CCCCCCCCCCCCC(C)[C@H](CC(=O)[*:1])O[*:2]; X4 = NCCCN(CCC[C@H](N[*:1])C(=O)[*:2])[*:3]; X3 = CCCCCCCCCCCCC[C@H](CC(=O)[*:1])O[*:2]; X6 = NCCN(CCC[C@H](N[*:1])C(=O)[*:2])[*:3]; ξGln(3R-OH) = NC(=O)C[C@@H](O)C(N)C(=O)O; Dopa = N[C@@H](Cc1ccc(O)c(O)c1)C(=O)O; Pro(3S-OH) = O=C(O)[C@H]1NCC[C@@H]1O; X1 = NC(=O)CC(O)C(N[*:1])C(=O)[*:2]; d(aThr) = C[C@@H](O)[C@@H](N)C(=O)O; Hyp = O=C(O)[C@@H]1C[C@@H](O)CN1; X5 = NCCCN[C@@H](CCCN)C(=O)*; dOrn = NCCC[C@@H](N)C(=O)O; Orn = NCCC[C@H](N)C(=O)O

Columns and labels:
Solubility = conditions: solvents in which soluble
A. fumigatus = assay: Murine pulmonary aspergillosis, survival; format: in vivo, mouse; conditions: cortisone-treated ICR male mice; once daily for 4 days; survival on day 14
Experimental: Murine pulmonary aspergillosis was created in cortisone-treated (250 mg/kg, twice sub-cutaneous treatments on 3 days before and on the infection day) ICR male mouse. Conidia of A. fumigatus (2.5×10^5 conidia/mouse) were infected intratracheally to these mice, and treatments were carried out once daily for 4 days. The efficacy of each drug was determined from the survival number, and 50% of effective dose (ED50) was calculated from the survival number at each dose on the 14 days.

[1] = system: Aspegillus fumigatus CF1003; assay: In vitro antifungal activity, broth micro-dilution IC80; format: cell-based, Aspergillus fumigatus; conditions: YNB medium with 0.2% agarose, 1-2 days at 35° C.
Experimental: (§1) The in vitro antifungal activities of the representative Aerothricins of the present study were evaluated by determining the 80% inhibitory concentration (IC80), which was calculated as the lowest concentration of an antifungal to inhibit the growth of fungus to 20% turbidity compared with the drug-free control growth spectrophotometrically.
(§2) The IC80 values were determined by the broth micro-dilution procedure based on NCCLS Approved Standard with the following minor modifications (National Committee for Clinical Laboratory Standards. (1997) Reference method for broth dilution antifungal susceptibility testing for yeasts. Approved standard. Document M27-A). Yeast Nitrogen Base (YNB; Difco Lab.) supplemented with 1% glucose and 0.25% K2HPO4 was used as testing medium for yeasts, the same medium solidified with 0.2% low melting point agarose (BRL) was used for filamentous fungi. Inoculum size was 1-3×10^3 cells/ml, and incubation was performed for 1-2 days at 35° C.

[2] = system: Scedosporium apiospermum CF1077; assay: as above; format: cell-based; conditions: YNB medium with 0.2% agarose, 1-2 days at 35° C.
Experimental: as §1, §2

Candida albicans CY1002 = assay: as above; format: cell-based; conditions: YNB medium, 1-2 days at 35° C.
Experimental: as §1, §2

mouse hepatocytes = assay: In vitro hepatotoxicity test; format: cell-based; conditions: mouse hepatocyte monolayers, exposed 1 day, morphological evaluation
Excerpt: The mouse hepatocytes were isolated by a collagenase digestion and cultured in microtest plates. The hepatocyte monolayers were exposed to the test Aerothricins in the culture system for 1 day. After the culture period, the hepatocytes were observed under a microscope and evaluated morphologically. The degree of the morphological alteration (degeneration) of the hepatocytes by the test Aerothricins were compared with WF11243 and LY303366.

Candida albicans = assay: Murine systemic candidiasis, survival; format: in vivo, mouse; conditions: Crj: CD-1 (ICR) mice; i.v. once just after infection; survival on day 7
Experimental: Mice of a conventional immunocompetent mouse strain, Crj: CD- 1 (ICR) were used for experimental infection models of systemic candidiasis. 4 weeks old Crj: CD-1 (ICR) mice were used for systemic candidiasis by injecting Candida albicans 5×10^6 conidia/mouse via the tail vein. Test compounds were intravenously (i.v.) given once just after infection for systemic candidiasis. 50% of effective dose (ED50) values were calculated from the survival number at each dose on day 7.

[3] = Toxicity on repeated i.v. administration to mice; format: in vivo; conditions: 5 mg/kg and 30 mg/kg once daily i.v. for 2 weeks

SMILES | In vivo antifungal activity against pulmonary aspergillosis in mice, ED50 on day 14 (A. fumigatus) | In vitro Antifungal activity, IC80 [1] | In vitro Antifungal activity, IC80 [2] | In vitro Antifungal activity, IC80 (Candida albicans CY1002) | Cytotoxicity to hepatocyte (mouse hepatocytes) | In vivo antifungal activity against systemic candidiasis in mice, ED50 on day 7 (Candida albicans) | other results
CCCCCCCCCCCCC(C)[C@@H]1CC(=O)N[C@H]([C@@H](C)O)C(=O)N[C@H](C)C(=O)N[C@@H](Cc2ccc(O)cc2)C(=O)N[C@@H](C(C)C)C(=O)N2C[C@H](O)C[C@H]2C(=O)N[C@H]([C@@H](C)O)C(=O)N[C@@H]([C@@H](C)O)C(=O)N2CC[C@H](O)[C@H]2C(=O)NC(C(O)CC(N)=O)C(=O)NCC(=O)N[C@H]([C@@H](C)O)C(=O)N[C@@H](CCCN)C(=O)O1 (stereo partly drawn) [Aerothricin 1] ([d(aThr)][dA]YV[Hyp][d(aThr)]T[Pro(3S-OH)][X1]G[d(aThr)][Orn]; linker N-C via X7) | – | – | – | – | – | – | Solubility (Solubility): Soluble: water, methanol, dimethylsulfoxide
CCCCCCCCCCCCC[C@@H]1CC(=O)N[C@H]([C@@H](C)O)C(=O)N[C@H](C)C(=O)N[C@@H](Cc2ccc(O)cc2)C(=O)N[C@@H](C(C)C)C(=O)N2C[C@H](O)C[C@H]2C(=O)N[C@H]([C@@H](C)O)C(=O)N[C@@H]([C@@H](C)O)C(=O)N2CC[C@H](O)[C@H]2C(=O)NC(C(O)CC(N)=O)C(=O)NCC(=O)N[C@H]([C@@H](C)O)C(=O)N[C@@H](CCCN(CCCN)C(=O)[C@H](CCCN)N(CCN)CCN)C(=O)O1 (stereo partly drawn) [Aerothricin 134] ([d(aThr)][dA]YV[Hyp][d(aThr)]T[Pro(3S-OH)][X1]G[d(aThr)][X4](Orn(Nα,Nα-(2-aminoethyl)2)); linker N-C via X3) | 5.8 mg/kg | 0.58 µg/mL | 0.37 µg/mL | 0.37 µg/mL | >100 µg/mL | – | –
CCCCCOc1ccc(-c2ccc(-c3ccc(C(=O)N[C@H]4C[C@@H](O)[C@@H](O)NC(=O)[C@@H]5[C@@H](O)[C@@H](C)CN5C(=O)[C@H]([C@@H](C)O)NC(=O)[C@H]([C@H](O)[C@@H](O)c5ccc(O)cc5)NC(=O)[C@@H]5C[C@@H](O)CN5C(=O)[C@H]([C@@H](C)O)NC4=O)cc3)cc2)cc1 [LY303366, reference compound] ({pTerphenylCO(4''-OnC5H11)}-[Orn(4R-OH,5R-OH)]T[Hyp][hTyr(3S-OH,4S-OH)]T[Pro(3S-OH,4S-Me)]; lactam 1-C) | – | – | – | – | 10 µg/mL | – | –
CCCCCCCCCCCCC[C@@H]1CC(=O)N[C@H]([C@@H](C)O)C(=O)N[C@H](C)C(=O)N[C@@H](Cc2ccc(O)cc2)C(=O)N[C@@H](C(C)C)C(=O)N2C[C@H](O)C[C@H]2C(=O)N[C@H]([C@@H](C)O)C(=O)N[C@@H]([C@@H](C)O)C(=O)N2CC[C@H](O)[C@H]2C(=O)NC([C@H](O)CC(N)=O)C(=O)NCC(=O)N[C@H]([C@@H](C)O)C(=O)N[C@@H](CCCNC(=O)[C@@H](CCCN)NC(=O)[C@@H](N)CCCN)C(=O)O1 (stereo partly drawn) [Aerothricin 133] ([d(aThr)][dA]YV[Hyp][d(aThr)]T[Pro(3S-OH)][ξGln(3R-OH)]G[d(aThr)][Orn]([dOrn-Orn]); linker N-C via X3) | – | – | – | – | – | 0.35 mg/kg | –
CCCCCCCCCCCCC[C@@H]1CC(=O)N[C@H]([C@@H](C)O)C(=O)N[C@H](C)C(=O)N[C@@H](Cc2ccc(O)cc2)C(=O)N[C@@H](C(C)C)C(=O)N2C[C@H](O)C[C@H]2C(=O)N[C@H]([C@@H](C)O)C(=O)N[C@@H]([C@@H](C)O)C(=O)N2CC[C@H](O)[C@H]2C(=O)NC(C(O)CC(N)=O)C(=O)NCC(=O)N[C@H]([C@@H](C)O)C(=O)N[C@@H](CCCN(CCCN)C(=O)[C@@H](N)CCCN)C(=O)O1 (stereo partly drawn) [Aerothricin 132] ([d(aThr)][dA]YV[Hyp][d(aThr)]T[Pro(3S-OH)][X1]G[d(aThr)][X2]; linker N-C via X3) | 5.2 mg/kg | 2.9 µg/mL | 0.38 µg/mL | 0.28 µg/mL | >100 µg/mL | 0.43 mg/kg | acute toxicity [3]: no acute toxicity
CCCCCCCCCCCCC[C@@H]1CC(=O)N[C@H]([C@@H](C)O)C(=O)N[C@H](C)C(=O)N[C@@H](Cc2ccc(O)cc2)C(=O)N[C@@H](C(C)C)C(=O)N2C[C@H](O)C[C@H]2C(=O)N[C@H]([C@@H](C)O)C(=O)N[C@@H]([C@@H](C)O)C(=O)N2CC[C@H](O)[C@H]2C(=O)NC(C(O)CC(N)=O)C(=O)NCC(=O)N[C@H]([C@@H](C)O)C(=O)N[C@@H](CCCN(CCCN)C(=O)[C@H](CCCN)NCCCN)C(=O)O1 (stereo partly drawn) [Aerothricin 136] ([d(aThr)][dA]YV[Hyp][d(aThr)]T[Pro(3S-OH)][X1]G[d(aThr)][X4](X5); linker N-C via X3) | – | 0.38 µg/mL | 0.34 µg/mL | 0.33 µg/mL | – | – | –
CCCCCCCCCCCCC[C@@H]1CC(=O)N[C@H]([C@@H](C)O)C(=O)N[C@H](C)C(=O)N[C@@H](Cc2ccc(O)cc2)C(=O)N[C@@H](C(C)C)C(=O)N2C[C@H](O)C[C@H]2C(=O)N[C@H]([C@@H](C)O)C(=O)N[C@@H]([C@@H](C)O)C(=O)N2CC[C@H](O)[C@H]2C(=O)NC(C(O)CC(N)=O)C(=O)NCC(=O)N[C@H]([C@@H](C)O)C(=O)N[C@@H](CCCN(CCN)C(=O)[C@H](CCCN)N(CCN)CCN)C(=O)O1 (stereo partly drawn) [Aerothricin 137] ([d(aThr)][dA]YV[Hyp][d(aThr)]T[Pro(3S-OH)][X1]G[d(aThr)][X6](Orn(Nα,Nα-(2-aminoethyl)2)); linker N-C via X3) | 5.2 mg/kg | – | – | – | – | – | –
CCCCCCCCCCCCC[C@@H]1CC(=O)N[C@H]([C@@H](C)O)C(=O)N[C@H](C)C(=O)N[C@@H](Cc2ccc(O)c(O)c2)C(=O)N[C@@H](C(C)C)C(=O)N2C[C@H](O)C[C@H]2C(=O)N[C@H]([C@@H](C)O)C(=O)N[C@@H]([C@@H](C)O)C(=O)N2CC[C@H](O)[C@H]2C(=O)NC(C(O)CC(N)=O)C(=O)NCC(=O)N[C@H]([C@@H](C)O)C(=O)N[C@@H](CCCN)C(=O)O1 (stereo partly drawn) [Aerothricin 2] ([d(aThr)][dA][Dopa]V[Hyp][d(aThr)]T[Pro(3S-OH)][X1]G[d(aThr)][Orn]; linker N-C via X3) | – | – | – | – | – | – | Solubility (Solubility): Soluble: water, methanol, dimethylsulfoxide
CCCCCCCCCCCCC[C@@H]1CC(=O)N[C@H]([C@@H](C)O)C(=O)N[C@H](C)C(=O)N[C@@H](Cc2ccc(O)cc2)C(=O)N[C@@H](C(C)C)C(=O)N2C[C@H](O)C[C@H]2C(=O)N[C@H]([C@@H](C)O)C(=O)N[C@@H]([C@@H](C)O)C(=O)N2CC[C@H](O)[C@H]2C(=O)NC(C(O)CC(N)=O)C(=O)NCC(=O)N[C@H]([C@@H](C)O)C(=O)N[C@@H](CCCN(CCCN)C(=O)[C@@H](CCCN)N(CCN)CCN)C(=O)O1 (stereo partly drawn) [Aerothricin 135] ([d(aThr)][dA]YV[Hyp][d(aThr)]T[Pro(3S-OH)][X1]G[d(aThr)][X4](NαBis(2-aminoethyl)dOrn); linker N-C via X3) | – | 0.37 µg/mL | 0.35 µg/mL | 0.41 µg/mL | >100 µg/mL | 0.35 mg/kg | –
